{"source": "patent US8067454B2", "about": "“Thio-substituted Anthra [1, 2-d] imidazole- 6, 11-dione derivatives, preparation method and application thereof” (National Defense Medical Center, priority 2010, dated 2011)", "key": {"RPMI-8226": {"tested_on": "RPMI-8226", "assay": "NCI 60-cell drug screen, Leukemia RPMI-8226", "type": "cell-based, human", "conditions": "1.00E−5 Molar"}, "MOLT-4": {"tested_on": "MOLT-4", "assay": "NCI 60-cell drug screen, Leukemia MOLT-4", "type": "cell-based, human", "conditions": "1.00E−5 Molar"}, "SF-268": {"tested_on": "SF-268", "assay": "NCI 60-cell drug screen, CNS Cancer SF-268", "type": "cell-based, human", "conditions": "1.00E−5 Molar"}, "OVCAR-5": {"tested_on": "OVCAR-5", "assay": "NCI 60-cell drug screen, Ovarian Cancer OVCAR-5", "type": "cell-based, human", "conditions": "1.00E−5 Molar"}, "MDA-MB-468": {"tested_on": "MDA-MB-468", "assay": "NCI 60-cell drug screen, Breast Cancer MDA-MB-468", "type": "cell-based, human", "conditions": "1.00E−5 Molar"}, "GBM8401": {"tested_on": "GBM8401", "assay": "MTT assay, GBM8401 tumor cell", "conditions": "concentration 10 μM, tumor cell"}, "OVCAR-3": {"tested_on": "OVCAR-3", "assay": "NCI 60-cell drug screen, Ovarian Cancer OVCAR-3", "type": "cell-based, human", "conditions": "1.00E−5 Molar"}, "HT29": {"tested_on": "HT29", "assay": "NCI 60-cell drug screen, Colon Cancer HT29", "type": "cell-based, human", "conditions": "1.00E−5 Molar"}, "SF-295": {"tested_on": "SF-295", "assay": "NCI 60-cell drug screen, CNS Cancer SF-295", "type": "cell-based, human", "conditions": "1.00E−5 Molar"}, "SK-OV-3": {"tested_on": "SK-OV-3", "assay": "NCI 60-cell drug screen, Ovarian Cancer SK-OV-3", "type": "cell-based, human", "conditions": "1.00E−5 Molar"}, "DU-145": {"tested_on": "DU-145", "assay": "NCI 60-cell drug screen, Prostate Cancer DU-145", "type": "cell-based, human", "conditions": "1.00E−5 Molar"}, "BT-549": {"tested_on": "BT-549", "assay": "NCI 60-cell drug screen, Breast Cancer BT-549", "type": "cell-based, human", "conditions": "1.00E−5 Molar"}, "HS 578T": {"tested_on": "HS 578T", "assay": "NCI 60-cell drug screen, Breast Cancer HS 578T", "type": "cell-based, human", "conditions": "1.00E−5 Molar"}, "ACHN": {"tested_on": "ACHN", "assay": "NCI 60-cell drug screen, Renal Cancer ACHN", "type": "cell-based, human", "conditions": "1.00E−5 Molar"}, "[1]": {"tested_on": "60 kinds of different human cancer cells", "assay": "NCI 60-cell drug screen, whole panel (One Dose Mean Graph)", "type": "cell-based", "conditions": "mean over the cell lines of the panel; 1.00E−5 Molar"}, "SNB-75": {"tested_on": "SNB-75", "assay": "NCI 60-cell drug screen, CNS Cancer SNB-75", "type": "cell-based, human", "conditions": "1.00E−5 Molar"}, "MDA-MB-435": {"tested_on": "MDA-MB-435", "assay": "NCI 60-cell drug screen, Melanoma MDA-MB-435", "type": "cell-based, human", "conditions": "1.00E−5 Molar"}, "CAKI-1": {"tested_on": "CAKI-1", "assay": "NCI 60-cell drug screen, Renal Cancer CAKI-1", "type": "cell-based, human", "conditions": "1.00E−5 Molar"}, "HOP-62": {"tested_on": "HOP-62", "assay": "NCI 60-cell drug screen, Non-Small Cell Lung Cancer HOP-62", "type": "cell-based, human", "conditions": "1.00E−5 Molar"}, "HOP-92": {"tested_on": "HOP-92", "assay": "NCI 60-cell drug screen, Non-Small Cell Lung Cancer HOP-92", "type": "cell-based, human", "conditions": "1.00E−5 Molar"}, "SF-539": {"tested_on": "SF-539", "assay": "NCI 60-cell drug screen, CNS Cancer SF-539", "type": "cell-based, human", "conditions": "1.00E−5 Molar"}, "EKVX": {"tested_on": "EKVX", "assay": "NCI 60-cell drug screen, Non-Small Cell Lung Cancer EKVX", "type": "cell-based, human", "conditions": "1.00E−5 Molar"}, "[2]": {"tested_on": "SVG p12, GBM8401 and GBM8901", "assay": "MTT assay, normal cell versus tumor cells (categories 39-3 to 39-7)", "conditions": "tumor cell survival rate less than 80%; FIG. 5A"}, "GBM8901": {"tested_on": "GBM8901", "assay": "MTT assay, GBM8901 tumor cell", "conditions": "concentration 10 μM, tumor cell"}, "A549/ATCC": {"tested_on": "A549/ATCC", "assay": "NCI 60-cell drug screen, Non-Small Cell Lung Cancer A549/ATCC", "type": "cell-based, human", "conditions": "1.00E−5 Molar"}}, "data": [{"smiles": "CCSc1nc2ccc3c(c2[nH]1)C(=O)c1ccccc1C3=O", "note": "[f1-1, 2-(Ethylthio)-1H-anthra[1,2-d]imidazole-6,11-dione]", "values": [{"measurement": "Growth Percent, RPMI-8226", "setting": "RPMI-8226", "result": 28.52, "unit": "%"}, {"measurement": "Growth Percent, MOLT-4", "setting": "MOLT-4", "result": 100.70, "unit": "%"}, {"measurement": "Growth Percent, SF-268", "setting": "SF-268", "result": 75.67, "unit": "%"}, {"measurement": "Growth Percent, OVCAR-5", "setting": "OVCAR-5", "result": 85.38, "unit": "%"}, {"measurement": "Growth Percent, MDA-MB-468", "setting": "MDA-MB-468", "result": 35.36, "unit": "%"}, {"measurement": "Cell survival rate (%) GBM8401", "setting": "GBM8401", "result": "42 ± 20", "unit": "%"}, {"measurement": "Growth Percent, OVCAR-3", "setting": "OVCAR-3", "result": 69.27, "unit": "%"}, {"measurement": "Growth Percent, HT29", "setting": "HT29", "result": 75.18, "unit": "%"}, {"measurement": "Growth Percent, SF-295", "setting": "SF-295", "result": 100.85, "unit": "%"}, {"measurement": "Growth Percent, SK-OV-3", "setting": "SK-OV-3", "result": 24.72, "unit": "%"}, {"measurement": "Growth Percent, DU-145", "setting": "DU-145", "result": 64.51, "unit": "%"}, {"measurement": "Growth Percent, BT-549", "setting": "BT-549", "result": 55.80, "unit": "%"}, {"measurement": "Growth Percent, HS 578T", "setting": "HS 578T", "result": 85.44, "unit": "%"}, {"measurement": "Growth Percent, ACHN", "setting": "ACHN", "result": 37.57, "unit": "%"}, {"measurement": "Growth Percent, Mean", "setting": "[1]", "result": 67.96, "unit": "%"}, {"measurement": "Growth Percent, SNB-75", "setting": "SNB-75", "result": 73.34, "unit": "%"}, {"measurement": "Growth Percent, MDA-MB-435", "setting": "MDA-MB-435", "result": 68.42, "unit": "%"}, {"measurement": "Growth Percent, CAKI-1", "setting": "CAKI-1", "result": "−8.01", "unit": "%"}, {"measurement": "Growth Percent, HOP-62", "setting": "HOP-62", "result": 96.59, "unit": "%"}, {"measurement": "Growth Percent, HOP-92", "setting": "HOP-92", "result": 75.35, "unit": "%"}, {"measurement": "Growth Percent, SF-539", "setting": "SF-539", "result": 58.58, "unit": "%"}, {"measurement": "Growth Percent, EKVX", "setting": "EKVX", "result": 43.67, "unit": "%"}, {"measurement": "category 39-3: survival rate higher than 80% for normal cell SVG p12 and inhibits growth of both tumor cells GBM8401 and GBM8901", "setting": "[2]", "result": "in this category"}, {"measurement": "Cell survival rate (%) GBM8901", "setting": "GBM8901", "result": "58 ± 7", "unit": "%"}, {"measurement": "Growth Percent, A549/ATCC", "setting": "A549/ATCC", "result": 100.94, "unit": "%"}]}]}
